The values that follow come from patent US20110124579A1, “SIALIC ACID TO SUPPORT SALIVATION” (NESTEC S.A., priority 2008, published 2011).

“Also recorded” adds a separate entry of the source.

The test relates to rats. In words: Pilocarpine stimulated salivation (cholinergic neuronal activity) in young adult and aged rats after 3 weeks on diet. In kind it is in vivo, rat. How it is done:
Young adult (3 months) and aged rats (24 months) were fed a semisynthetic diet containing sialic acid at a concentration of 0.15 g/100 g diet (control) or a semi-synthetic diet additionally supplemented with sialic acid to a final concentration of 0.9 g/100 g diet (Sia).
After 3 weeks on the experimental diet neuronal activity of cholinergic neurons was assessed. To this end rats were injected pilocarpine (IP, 1.5 mg/kg body weight for 24 months rats and 2 mg/kg body weight for 3 months rats). Pilocarpine is a muscarinic agonist acting on cholinergic neurons, which leads to salivation. Thus stimulated saliva collection was timed with a chronometer. After about 7 minutes collection was stopped.

For `CC(=O)N[C@H]1[C@H]([C@H](O)[C@H](O)CO)OC(O)(C(=O)O)C[C@@H]1O` (some centres unmarked) [sialic acid, N-acetylneuraminic acid], where the note is “aged rats (24 months), diet supplemented with sialic acid to 0.9 g/100 g diet vs control 0.15 g/100 g, 3 weeks, pilocarpine IP 1.5 mg/kg, 1.5 mg/kg”, the “stimulated salivation / neuronal activity of cholinergic neurons (stimulated saliva production per time)” value is given as “increased stimulated salivation equal to the salivation found in young animals; also recorded: significantly increased neuronal activity; also recorded: reached similar stimulated salivation values as the young animals; also recorded: proper salivation was re-established in aged animals”. Also, under “young adult (3 m) and old age (24 m) rats, NeuAc enriched diet vs control diet for 3 weeks, FIG. 2, N=8-10”, the “Pilocarpine stimulated salivation, aged vs young adult rats” value is “increased stimulated salivation in aged rats much more efficiently than in young adult rats”.
